Measured values taken from ChEMBL document CHEMBL2202971, “Synthesis and anti-hyperglycemic activity of hesperidin derivatives” (2012).
Blank lines part the entries; values can stand above or below the compound they belong to. Calls of active or inactive are those of the source. The calls are words filed in the database; no cut-off is given here.

Columns and labels:
[1] = Inhibition of alpha glucosidase at 1 mM using pNPG substrate incubated for 60 mins
[2] = test system: Mus musculus; assay: Antihyperglycemic activity in streptozotocin-induced diabetic Kunming mouse model assessed as blood glucose level at 100 mg/kg/day, po for 10 days measured on day 10 post dose (reference value: 23.03 +/- 3.94 mM); type: functional
[3] = test system: Mus musculus; assay: Antihyperglycemic activity in streptozotocin-induced diabetic Kunming mouse model assessed as blood glucose level at 100 mg/kg/day, po for 10 days measured on day 3 post dose (reference value: 23.97 +/- 3.79 mM); type: functional
[4] = test system: Mus musculus; assay: Antihyperglycemic activity in streptozotocin-induced diabetic Kunming mouse model assessed as blood glucose level at 100 mg/kg/day, po for 10 days measured on day 7 post dose (reference value: 23.6 +/- 4.25 mM); type: functional
[5] = test system: Mus musculus; assay: Antihyperglycemic activity in streptozotocin-induced diabetic Kunming mouse model assessed as blood glucose level at 100 mg/kg/day, po for 10 days measured on day 1 post dose (reference value: 19.93 +/- 6.36 mM); type: functional
[6] = test system: HepG2; assay: Induction of glucose consumption in human HepG2 cells at 0.1 mM assessed as glucose concentration incubated for 36 hrs; type: functional
[7] = test system: Mus musculus; assay: Antihyperglycemic activity in streptozotocin-induced diabetic Kunming mouse model assessed as blood glucose level at 50 mg/kg/day, po for 10 days measured on day 10 post dose (reference value: 23.03 +/- 3.94 mM); type: functional
[8] = test system: Mus musculus; assay: Antihyperglycemic activity in streptozotocin-induced diabetic Kunming mouse model assessed as blood glucose level at 50 mg/kg/day, po for 10 days measured on day 3 post dose (reference value: 23.97 +/- 3.79 mM); type: functional
[9] = test system: Mus musculus; assay: Antihyperglycemic activity in streptozotocin-induced diabetic Kunming mouse model assessed as blood glucose level at 50 mg/kg/day, po for 10 days measured on day 1 post dose (reference value: 19.93 +/- 6.36 mM); type: functional
[10] = test system: Mus musculus; assay: Antihyperglycemic activity in streptozotocin-induced diabetic Kunming mouse model assessed as blood glucose level at 50 mg/kg/day, po for 10 days measured on day 7 post dose (reference value: 23.6 +/- 4.25 mM); type: functional

SMILES: CCC(=O)Oc1cc(O)c2c(c1)OC(c1ccc(OC)c(O)c1)CC2=O (stereo not given)
inhibition [1]: Active

SMILES: CN(C)C(=N)NC(=N)N [METFORMIN]
Activity [2]: 10 mM
Activity [3]: 20.72 mM
Activity [4]: 14.47 mM
Activity [5]: 16.98 mM
Activity [6]: 2.11 mM

SMILES: C[C@H]1O[C@H](O[C@H]2[C@H](O)[C@@H](O)[C@@H](O[C@H]3[C@H](O)[C@@H](O)C(O)O[C@@H]3CO)O[C@@H]2CO)[C@H](O)[C@@H](O)[C@@H]1N[C@H]1C=C(CO)[C@@H](O)[C@H](O)[C@H]1O (stereo not given in full)
inhibition [1]: 54.8%

SMILES: COc1ccc(C2CC(=O)c3c(O)cc(OCc4ccccc4)cc3O2)cc1O (stereo not given)
Activity [7]: 20.1 mM
inhibition [1]: 55%
Activity [8]: 21.25 mM
Activity [9]: 17.5 mM
Activity [2]: 13.23 mM
Activity [3]: 20.12 mM
Activity [4]: 19.18 mM
Activity [5]: 16.78 mM
Activity [6]: 1.78 mM
Activity [10]: 19.35 mM

SMILES: COc1ccc(C2CC(=O)c3c(O)cc(O)cc3O2)cc1O (stereo not given)
inhibition [1]: Active

SMILES: COc1ccc(C2CC(=O)c3c(O)cc(OC(=O)c4ccccc4)cc3O2)cc1O (stereo not given)
inhibition [1]: Active

The next lines start with the values.

inhibition [1]: Active
SMILES: CCC(=O)Oc1cc(O)c2c(c1)OC(c1ccc(OC)c(OC)c1)CC2=O (stereo not given)

inhibition [1]: Active
SMILES: CCCCOc1cc(O)c2c(c1)OC(c1ccc(OC)c(OC)c1)CC2=O (stereo not given)

inhibition [1]: 53.3%
SMILES: COc1ccc(C2CC(=O)c3c(O)cc(OCc4ccccc4)cc3O2)cc1OC (stereo not given)

inhibition [1]: Active
SMILES: COc1ccc(C2CC(=O)c3c(O)cc(OC(C)=O)cc3O2)cc1O (stereo not given)

inhibition [1]: Active
SMILES: COc1ccc(C2CC(=O)c3c(O)cc(OCCCCBr)cc3O2)cc1OC (stereo not given)

inhibition [1]: Active
SMILES: COc1ccc(C2CC(=O)c3c(O)cc(O)cc3O2)cc1OC (stereo not given)
